Results as given in patent publication US12227495B2, “Herbicidal compounds” (SYNGENTA CROP PROTECTION AG, priority 2018, dated 2025).

Experiments:
Assay type in all cases: in vivo
Lolium perenne (LOLPE) [1] = assay: Pre-emergence herbicide test, glasshouse, percentage damage; settings: rate 1000 g/ha, evaluated after 13 days
In short: (§1)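 Seeds sown in pots; cultured 1 day (pre-emergence) or 8 days (post-emergence) in a controlled glasshouse; then sprayed with the active in acetone/water 50:50 plus 0.5% Tween 20 at 500 g/ha unless noted; grown on 13 days; damage assessed and banded into five classes.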

[2] = test system: Echinochloa crus-galli (ECHCG); assay: as above; settings: rate 1000 g/ha, evaluated after 13 days
In short: as §1

[3] = test system: Amaranthus retoflexus (AMARE); assay: as above; settings: rate 1000 g/ha, evaluated after 13 days
In short: as §1

[4] = test system: Ipomoea hederacea (IPOHE); assay: as above; settings: rate 1000 g/ha, evaluated after 13 days
In short: as §1

Solanum nigrum (SOLNI) [5] = assay: as above; settings: rate 1000 g/ha, evaluated after 13 days
In short: as §1

Setaria faberi (SETFA) [6] = assay: as above; settings: rate 1000 g/ha, evaluated after 13 days
In short: as §1

Lolium perenne (LOLPE) [7] = assay: Post-emergence herbicide test, glasshouse, percentage damage; settings: 1000 g/ha, evaluated after 13 days
In short: as §1

[8] = test system: Echinochloa crus-galli (ECHCG); assay: as above; settings: 1000 g/ha, evaluated after 13 days
In short: as §1

[9] = test system: Amaranthus retoflexus (AMARE); assay: as above; settings: 1000 g/ha, evaluated after 13 days
In short: as §1

[10] = test system: Ipomoea hederacea (IPOHE); assay: as above; settings: 1000 g/ha, evaluated after 13 days
In short: as §1

Solanum nigrum (SOLNI) [11] = assay: as above; settings: 1000 g/ha, evaluated after 13 days
In short: as §1

Setaria faberi (SETFA) [12] = assay: as above; settings: 1000 g/ha, evaluated after 13 days
In short: as §1

Row | SMILES | Pre-emergence Test LOLPE percentage damage (five point scale) (Lolium perenne (LOLPE) [1]) | Pre-emergence Test ECHCG percentage damage (five point scale) [2] | Pre-emergence Test AMARE percentage damage (five point scale) [3] | Pre-emergence Test IPOHE percentage damage (five point scale) [4] | Pre-emergence Test SOLNI percentage damage (five point scale) (Solanum nigrum (SOLNI) [5]) | Pre-emergence Test SETFA percentage damage (five point scale) (Setaria faberi (SETFA) [6]) | percentage damage caused to the plant, LOLPE (Lolium perenne (LOLPE) [7]) | percentage damage caused to the plant, ECHCG [8] | percentage damage caused to the plant, AMARE [9] | percentage damage caused to the plant, IPOHE [10] | percentage damage caused to the plant, SOLNI (Solanum nigrum (SOLNI) [11]) | percentage damage caused to the plant, SETFA (Setaria faberi (SETFA) [12])
1 | N#Cc1ccnc(Oc2cccc(Br)c2-c2cc(C(F)F)no2)c1 [Compound A87] | 4 (4=61-80%) | 4 (4=61-80%) | 4 (4=61-80%) | 1 (1=0-20%) | 3 (3=41-60%) | 5 (5=81-100%) | 3 (3=41-60%) | 3 (3=41-60%) | 4 (4=61-80%) | 3 (3=41-60%) | 4 (4=61-80%) | 5 (5=81-100%)
2 | O=[N+]([O-])c1ccc(Oc2cccc(Br)c2-c2cc(C(F)F)no2)nc1 [Compound A88] | 4 (4=61-80%) | 5 (5=81-100%) | 5 (5=81-100%) | 1 (1=0-20%) | 4 (4=61-80%) | 5 (5=81-100%) | 3 (3=41-60%) | 4 (4=61-80%) | 5 (5=81-100%) | 2 (2=21-40%) | 4 (4=61-80%) | 4 (4=61-80%)
3 | FC(F)c1cc(-c2c(Br)cccc2Oc2ncc(Cl)cc2Cl)on1 [Compound A89] | 2 (2=21-40%) | 4 (4=61-80%) | 4 (4=61-80%) | 3 (3=41-60%) | 2 (2=21-40%) | 4 (4=61-80%) | 3 (3=41-60%) | 4 (4=61-80%) | 5 (5=81-100%) | 4 (4=61-80%) | 4 (4=61-80%) | 5 (5=81-100%)
4 | FC(F)c1cc(-c2c(Br)cccc2Oc2ccc(C(F)(F)F)cn2)on1 [Compound A90] | 5 (5=81-100%) | 5 (5=81-100%) | 4 (4=61-80%) | 3 (3=41-60%) | 4 (4=61-80%) | 5 (5=81-100%) | 4 (4=61-80%) | 4 (4=61-80%) | 5 (5=81-100%) | 4 (4=61-80%) | 4 (4=61-80%) | 5 (5=81-100%)
5 | N#Cc1ccnc(Oc2cccc(Cl)c2-c2cc(C(F)F)no2)c1 [Compound A91] | 4 (4=61-80%) | 5 (5=81-100%) | 4 (4=61-80%) | 4 (4=61-80%) | 3 (3=41-60%) | 5 (5=81-100%) | 4 (4=61-80%) | 4 (4=61-80%) | 4 (4=61-80%) | 4 (4=61-80%) | 4 (4=61-80%) | 4 (4=61-80%)
6 | FC(F)c1cc(-c2c(Cl)cccc2Oc2cc(Cl)ccn2)on1 [Compound A92] | 5 (5=81-100%) | 1 (1=0-20%) | 4 (4=61-80%) | 4 (4=61-80%) | 2 (2=21-40%) | 5 (5=81-100%) | 4 (4=61-80%) | 4 (4=61-80%) | 4 (4=61-80%) | 4 (4=61-80%) | 4 (4=61-80%) | 4 (4=61-80%)
7 | Fc1cc(Cl)cnc1Oc1c(F)cccc1-c1cc(C(F)F)no1 [Compound A93] | 3 (3=41-60%) | 4 (4=61-80%) | 4 (4=61-80%) | 3 (3=41-60%) | 4 (4=61-80%) | 4 (4=61-80%) | 3 (3=41-60%) | 4 (4=61-80%) | 5 (5=81-100%) | 3 (3=41-60%) | 3 (3=41-60%) | 5 (5=81-100%)
8 | Cc1cccc(-c2cc(C(F)F)no2)c1Oc1ncc(Cl)cc1F [Compound A94] | 2 (2=21-40%) | 3 (3=41-60%) | 4 (4=61-80%) | 1 (1=0-20%) | 2 (2=21-40%) | 2 (2=21-40%) | 2 (2=21-40%) | 2 (2=21-40%) | 4 (4=61-80%) | 1 (1=0-20%) | 4 (4=61-80%) | 3 (3=41-60%)
9 | Fc1cc(Cl)cnc1Oc1c(Cl)cccc1-c1cc(C(F)F)no1 [Compound A95] | 1 (1=0-20%) | 4 (4=61-80%) | 4 (4=61-80%) | 1 (1=0-20%) | 1 (1=0-20%) | 3 (3=41-60%) | 3 (3=41-60%) | 3 (3=41-60%) | 4 (4=61-80%) | 1 (1=0-20%) | 4 (4=61-80%) | 4 (4=61-80%)
10 | Fc1cc(Cl)cnc1Oc1ccccc1-c1cc(C(F)(F)F)cs1 [Compound A97, 5-chloro-3-fluoro-2-[2-[4-(trifluoromethyl)-2-thienyl]phenoxy]pyridine] | 2 (2=21-40%) | 3 (3=41-60%) | 4 (4=61-80%) | 2 (2=21-40%) | 2 (2=21-40%) | 4 (4=61-80%) | 3 (3=41-60%) | 4 (4=61-80%) | 5 (5=81-100%) | 4 (4=61-80%) | 4 (4=61-80%) | 5 (5=81-100%)
11 | Fc1cccc(Oc2cccc(Br)c2-c2cc(C(F)F)no2)n1 [Compound A98] | 3 (3=41-60%) | 5 (5=81-100%) | 4 (4=61-80%) | 1 (1=0-20%) | 3 (3=41-60%) | 5 (5=81-100%) | 3 (3=41-60%) | 4 (4=61-80%) | 4 (4=61-80%) | 3 (3=41-60%) | 4 (4=61-80%) | 5 (5=81-100%)
12 | FC(F)c1cc(-c2c(Br)cccc2Oc2cc(C(F)(F)F)ccn2)on1 [Compound A99] | 3 (3=41-60%) | 4 (4=61-80%) | 5 (5=81-100%) | 1 (1=0-20%) | 1 (1=0-20%) | 4 (4=61-80%) | 3 (3=41-60%) | 4 (4=61-80%) | 5 (5=81-100%) | 2 (2=21-40%) | 4 (4=61-80%) | 4 (4=61-80%)
